Laboratory results as given in US20260234165A1, “MACROCYCLIC COMPOUNDS, PREPARATION METHOD THEREFOR, AND USE THEREOF” (GENFLEET THERAPEUTICS (SHANGHAI) INC., priority 2004, published 2026).
Structures can show the parent of a compound that is named as a salt. Where two headings read alike, the source gives them in different places.

How the values were obtained:
Assay type in all cases: cell-based, human
[1] = system: p-ERK in NCI-H441 cells (KRAS G12V mutation); assay: Cell p-ERK assay (HTRF) in NCI-H441 cells
Summary of the method: (§1)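 Phospho-ERK inhibition measured by HTRF after a 3 h compound exposure (0.1% DMSO) in overnight-seeded cells; IC50 derived from dose-response fitting.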

[2] = system: AsPC-1 cells (KRAS G12D mutation); assay: 3D cell proliferation assay (CellTiter Glo-3D), AsPC-1; details: medium with 2% FBS, read-out: AsPC-1 AP IC50
Summary of the method: (§2)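 800 cells/well (NCI-H441, […]; AsPC-1, KRAS G12D), low-serum RPMI-1640 (2% FBS), overnight attach; 3.16-fold serial dilutions added, 0.1% DMSO; 5 d, 37 °C; CellTiter-Glo 3D RLU; IC50, 4-parameter fit.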

NCI-H441 cells = assay: 3D cell proliferation assay (CellTiter Glo-3D), NCI-H441; details: medium with 2% FBS, read-out: H441 AP IC50
Summary of the method: as §2

[3] = system: p-ERK in AsPC-1 cells (KRAS G12D mutation); assay: Cell p-ERK assay (HTRF) in AsPC-1 cells
Summary of the method: as §1

[4] = Homo sapiens, NCI-H441, 3 h, NCI-H441 cells, 3 h compound incubation, HTRF p-ERK T202/Y204, read-out: H441 p-ERK IC50
[5] = Homo sapiens, ASPC1, 3D cell proliferation (CellTiter Glo-3D)
[6] = Homo sapiens, NCI-H441, 3D cell proliferation (CellTiter Glo-3D)
[7] = Homo sapiens, ASPC1, 3 h, AsPC-1 cells, 3 h compound incubation, HTRF p-ERK T202/Y204, read-out: AsPC-1 p-ERK IC50
[8] = Homo sapiens, NCI-H441, 3 h, read-out: H441 p-ERK IC50(nM)
[9] = Homo sapiens, 3D cell proliferation (CellTiter Glo-3D)
[10] = Homo sapiens, ASPC1, 3 h, read-out: AsPC-1 p-ERK IC50(nM)
[11] = NCI-H441 cells, 3 h compound incubation, HTRF p-ERK T202/Y204, read-out: H441 p-ERK IC50
[12] = 3D cell proliferation (CellTiter Glo-3D)
[13] = AsPC-1 cells, 3 h compound incubation, HTRF p-ERK T202/Y204, read-out: AsPC-1 p-ERK IC50

Structure (SMILES): CCn1c(-c2cc(C#CCN3CCC3)cnc2[C@H](C)OC)c2c3cc(ccc31)-c1csc(n1)C[C@H](NC(=O)[C@H]1[C@@H]3COC[C@@H]31)C(=O)N1CCC[C@H](N1)C(=O)OCC(C)(C)C2 (atropisomer, axis not shown; (Ra)) [Compound Z1031, (1R,5S,6r)-N-((6^3S,4S,Z)-1^2-(5-(3-(azetidin-1-yl)prop-1-yn-1-yl)-(Ra)-2-((S)-1-methoxyethyl)pyridin-3-yl)-1^1-ethyl-10,10-dimethyl-5,7-dioxo-6^1,6^2,6^3,6^4,6^5,6^6-hexahydro-1^1H-8-oxa-2(4,2)-thiazola-1(5,3)-indola-6(1,3)-pyridazinacycloundecaphane-4-yl)-3-oxabicyclo[3,1,0]hexane-6-carboxamide]
- IC50 [1, 4]: 0.67 nM
- IC50 [2, 5]: 1.47 nM
- IC50 (NCI-H441 cells; [6]): 0.91 nM
- IC50 [3, 7]: 0.74 nM

Structure (SMILES): CCn1c(-c2cc(C#CCN3CCCOCC3)cnc2[C@H](C)OC)c2c3cc(ccc31)-c1csc(n1)C[C@H](NP1(=O)CC(C)=C(C)C1)C(=O)N1CCC[C@H](N1)C(=O)OCC(C)(C)C2 (atropisomer, axis not shown; (Ra)) [Compound Z1032, (6^3S,4S,Z)—(Ra)-1^2-(5-(3-(1,4-oxazepan-4-yl)prop-1-yn-1-yl)-2-((S)-1-methoxyethyl)pyridin-3-yl)-4-((3,4-dimethyl-1-oxido-2,5-dihydrophosphol-1-yl)amino)-1^1-ethyl-10,10-dimethyl-6^1,6^2,6^3,6^4,6^5,6^6-hexahydro-1^1H-8-oxa-2(4,2)-thiazola-1(5,3)-indola-6(1,3)-pyridazinacycloundecaphane-5,7-dione]
- IC50 [1, 4]: 2.18 nM
- IC50 [2, 5]: 20.9 nM
- IC50 (NCI-H441 cells; [6]): 8.14 nM
- IC50 [3, 7]: 7.52 nM

Structure (SMILES): CCn1c(-c2cc(C#CCN3CCC(O)(c4cccc[n+]4[O-])CC3)cnc2[C@H](C)OC)c2c3cc(ccc31)-c1csc(n1)C[C@H](NC(=O)[C@H]1[C@H](C)[C@@H]1C)C(=O)N1CCC[C@H](N1)C(=O)OCC(C)(C)C2 (atropisomer, axis not shown; (Ra)) [Compound Z1047, 2-(1-(3-(5-((6^3S,4S,Z)-4-((1r,2R,3S)-2,3-dimethylcyclopropane-1-carboxamido)-1^1-ethyl-10,10-dimethyl-5,7-dioxo-6^1,6^2,6^3,6^4,6^5,6^6-hexahydro-1^1H-8-oxa-2(4,2)-thiazola-1(5,3)-indola-6(1,3)-pyridazinacycloundecaphane-1^2-yl)-(Ra)-6-((S)-1-methoxyethyl)pyridin-3-yl)prop-2-yn-1-yl)-4-hydroxypiperidin-4-yl)pyridine-1-oxide formate]
- IC50 [1, 8]: 0.22 nM
- IC50 [2, 5]: 0.37 nM
- IC50 (NCI-H441 cells; [9]): 0.24 nM
- IC50 [3, 10]: 0.24 nM

Structure (SMILES): CCn1c(-c2cc(C#CCN3CCC(Nc4ccccc4P(C)(C)=O)CC3)cnc2[C@H](C)OC)c2c3cc(ccc31)-c1csc(n1)C[C@H](NC(=O)[C@H]1[C@H](C)[C@@H]1C)C(=O)N1CCC[C@H](N1)C(=O)OCC(C)(C)C2 (atropisomer, axis not shown; (Ra)) [Compound Z1062, (1r,2R,3S)—N-((6^35,4S,Z)-1^2-(5-(3-(4-((2-(dimethylphosphoryl)phenyl)amino)piperidin-1-yl)prop-1-yn-1-yl)-(Ra)-2-((S)-1-methoxyethyl)pyridin-3-yl)-1^1-ethyl-10,10-dimethyl-5,7-dioxo-6^1,6^2,6^3,6^4,6^5,6^6-hexahydro-1^1H-8-oxa-2(4,2)-thiazola-1(5,3)-indola-6(1,3)-pyridazinacycloundecaphane-4-yl)-2,3-dimethylcyclopropane-1-carboxamide]
- IC50 [1, 4]: 0.53 nM
- IC50 [2, 5]: 0.94 nM
- IC50 (NCI-H441 cells; [6]): 1.3 nM
- IC50 [3, 7]: 0.82 nM

Structure (SMILES): COCCn1c(-c2cc(C#CCN(C)C[Si](C)(C)C)cnc2[C@H](C)OC)c2c3cc(ccc31)-c1csc(n1)C[C@H](NC(=O)[C@H]1[C@@H]3COC[C@@H]31)C(=O)N1CCC[C@H](N1)C(=O)OCC(C)(C)C2 (atropisomer, axis not shown; (Ra)) [Compound Z1091, (1R,5S,6r)-N-((6^3S,4S,Z)-1^1-(2-methoxyethyl)-1^2-(Ra)-(2-((S)-1-methoxyethyl)-5-(3-(methyl((trimethylsilyl)methyl)amino)prop-1-yn-1-yl)pyridin-3-yl)-10,10-dimethyl-5,7-dioxo-6^1,6^2,6^3,6^4,6^5,6^6-hexahydro-1^1H-8-oxa-2(4,2)-thiazola-1(5,3)-indola-6(1,3)-pyridazinacycloundecaphane-4-yl)-3-oxabicyclo[3.1.0]hexane-6-carboxamide]
- IC50 [1, 8]: 1.92 nM
- IC50 [2, 5]: 1.67 nM
- IC50 (NCI-H441 cells; [9]): 2.01 nM
- IC50 [3, 10]: 2.34 nM

Structure (SMILES): CCn1c(-c2cc(OCCN3CCOC4(CC4)C3)cnc2[C@H](C)OC)c2c3cc(ccc31)-c1csc(n1)C[C@H](NC(=O)[C@H]1[C@H](C)[C@@H]1C)C(=O)N1CCC[C@H](N1)C(=O)OCC(C)(C)C2 (atropisomer, axis not shown; (Sa)) [Compound Z551, (1r,2R,3S)—N-((6^3R,4R,Z)—(Sa)-1^2-(5-(2-(4-oxa-7-azaspiro[2,5]octan-7-yl)ethoxy)-2-((S)-1-methoxyethyl)-3-ylpyridin)-1^1-ethyl-10,10-dimethyl-5,7-dioxo-6^1,6^2,6^3,6^4,6^5,6^6-hexahydro-1^1H-8-oxa-2(4,2)-thiazola-1(5,3)-indola-6(1,3)-pyridazinacycloundecaphane-4-yl)-2,3-dimethylcyclopropane-1-carboxamide]
- IC50 [1, 4]: 0.27 nM
- IC50 [2, 5]: 0.32 nM
- IC50 (NCI-H441 cells; [6]): 0.37 nM
- IC50 [3, 7]: 0.29 nM

Structure (SMILES): CCn1c(-c2cc(C#CCN3CCC3)cnc2[C@H](C)OC)c2c3cc(ccc31)-c1csc(n1)C[C@H](NC(=O)[C@H]1[C@H](C)[C@@H]1C)C(=O)N1CCC[C@H](N1)C(=O)OCC(C)(C)C2 (atropisomer, axis not shown; (Sa)) [Compound Z555, (1r,2R,3S)—N-((6^3S,4S,Z)—(Sa)-1^2-(5-(3-(azetidin-1-yl)prop-1-yn-1-yl)-2-((S)-1-methoxyethyl)pyridin-3-yl)-1^1-ethyl-10,10-dimethyl-5,7-dioxo-6^1,6^2,6^3,6^4,6^5,6^6-hexahydro-1^1H-8-oxa-2(4,2)-thiazola-1(5,3)-indola-6(1,3)-pyridazinacycloundecaphane-4-yl)-2,3-dimethylcyclopropane-1-carboxamide]
- IC50 [1, 11]: 11.2 nM
- IC50 [2, 12]: 30.4 nM
- IC50 (NCI-H441 cells; [12]): 18.4 nM
- IC50 [3, 13]: 13.4 nM

Structure (SMILES): CCn1c(-c2cc(C#CC(C)N3CCC3)cnc2[C@H](C)OC)c2c3cc(ccc31)-c1csc(n1)C[C@H](NC(=O)[C@H]1[C@H](C)[C@@H]1C)C(=O)N1CCC[C@H](N1)C(=O)OCC(C)(C)C2 (atropisomer, axis not shown; (Sa)) [Compound Z613-2, (1r,2R,3S)—N-((6^3S,4S,Z)-12-(5-(3-(azetidin-1-yl)but-1-yn-1-yl)-(Sa)-2-((S)-1-methoxyethyl)pyridin-3-yl)-4′-ethyl-10,10-dimethyl-5,7-dioxo-6^1,6^2,6^3,6^4,6^5,6^6-hexahydro-1^1H-8-oxa-2(4,2)-thiazola-(5,3)-indola-6(1,3)-pyridazinacycloundecaphane-4-yl)-2.3-dimethylcyclopropane-1-carboxamide]
- IC50 [1, 4]: 0.34 nM
- IC50 [2, 5]: 0.79 nM
- IC50 (NCI-H441 cells; [6]): 0.7 nM
- IC50 [3, 7]: 0.68 nM

Structure (SMILES): CCn1c(-c2cc(OCCN3CCOCC34CC4)cnc2[C@H](C)OC)c2c3cc(ccc31)-c1csc(n1)C[C@H](NC(=O)[C@H]1C[C@@H]1C(F)F)C(=O)N1CCC[C@H](N1)C(=O)OCC1(CC1)C2 (relative stereo) [Compound Z557, (1S,2S)—N-((3′S,4′S,Z)—(Ra)-2′-(5-(2-(7-oxa-4-azaspiro[2,5]octan-4-yl)ethoxy)-2-((S)-1-methoxyethyl)pyridin-3-yl)-1′-ethyl-5′,7′-dioxospiro[cyclopropane-1,10′-8-oxa-2(4,2)-thiazola-1(5,3)-indola-6(1,3)-pyridazinacycloundecaphan]-4′-yl)-2-trans-(difluoromethyl)cyclopropane-1-carboxamide]
- IC50 [1, 11]: 5.56 nM
- IC50 [2, 12]: 16.3 nM
- IC50 (NCI-H441 cells; [12]): 7.66 nM
- IC50 [3, 13]: 20.7 nM

Structure (SMILES): CCn1c(-c2cc(N3CCN(C)CC3)cnc2[C@H](C)OC)c2c3cc(ccc31)-c1csc(n1)C[C@H](NC(=O)C(C)(C)F)C(=O)N1CCC[C@H](N1)C(=O)OCC(C)(C)C2 (single isomer, unassigned) [Compound Z5]
- IC50 [1, 11]: 4.24 nM
- IC50 [2, 12]: 19.5 nM
- IC50 (NCI-H441 cells; [12]): 12.3 nM
- IC50 [3, 13]: 2.81 nM

Structure (SMILES): CCn1c(-c2cc([C@@H]3CCN4CCOC[C@@H]4C3)cnc2[C@H](C)OC)c2c3cc(ccc31)-c1csc(n1)C[C@H](NC(=O)[C@H]1[C@H](C)[C@@H]1C)C(=O)N1CCC[C@H](N1)C(=O)OCC1(CC1)C2 (single isomer, unassigned) [Compound Z77]
- IC50 [1, 4]: 7.48 nM
- IC50 [2, 5]: 17.4 nM
- IC50 (NCI-H441 cells; [6]): 4.94 nM
- IC50 [3, 7]: 13.9 nM
